Measured values from PMC12913247 (Pharmaceutical Research, 2025).
Values joined by “and” are separate entries in the source; they are usually repeats but may differ in a detail not shown here. Equal entries are not always repeated.

What was measured:
HIBCPP cell layer = assay: Transcellular transport; conditions: for Papp,correct AP-to-BL / Papp,correct BL-to-AP: corrected by lucifer yellow; for Papp,correct in the BL-to-AP direction relative to the AP-to-BL direction: BL-to-AP greater than AP-to-BL
CAT1 = CAT1 (Homo sapiens, UniProt P30825); assay: [3H]L-arginine uptake by HIBCPP cells; type: cell-based; conditions: for Relative uptake (% of control): 1 min
PMAT = assay: MPP+ uptake by HIBCPP cells; type: cell-based, human; conditions: 5 min
GLUT1 = target: T1, GLUT1 (Homo sapiens, UniProt P11166); assay: [3H]3-O-methylglucose uptake by HIBCPP cells; type: cell-based; conditions: 10 s, glucose-free IB
T1 sequence (P11166 1-492): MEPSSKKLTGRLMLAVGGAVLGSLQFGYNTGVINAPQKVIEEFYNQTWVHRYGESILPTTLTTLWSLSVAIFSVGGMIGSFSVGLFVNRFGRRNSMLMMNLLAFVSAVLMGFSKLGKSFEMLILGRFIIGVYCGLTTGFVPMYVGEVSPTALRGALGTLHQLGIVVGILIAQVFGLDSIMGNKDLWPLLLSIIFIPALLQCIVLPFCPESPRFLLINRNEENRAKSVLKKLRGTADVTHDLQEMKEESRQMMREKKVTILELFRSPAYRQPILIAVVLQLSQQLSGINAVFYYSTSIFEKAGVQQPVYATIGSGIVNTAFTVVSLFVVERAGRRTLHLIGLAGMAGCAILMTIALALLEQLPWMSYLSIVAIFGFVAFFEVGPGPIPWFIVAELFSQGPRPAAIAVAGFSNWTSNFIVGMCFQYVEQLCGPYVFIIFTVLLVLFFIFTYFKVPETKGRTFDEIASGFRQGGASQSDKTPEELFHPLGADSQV

MCT1 = target: T2, MCT1 (Homo sapiens, UniProt P53985); assay: [14C]L-lactate uptake by HIBCPP cells; type: cell-based; conditions: IB pH 6.0
T2 sequence (P53985 1-500): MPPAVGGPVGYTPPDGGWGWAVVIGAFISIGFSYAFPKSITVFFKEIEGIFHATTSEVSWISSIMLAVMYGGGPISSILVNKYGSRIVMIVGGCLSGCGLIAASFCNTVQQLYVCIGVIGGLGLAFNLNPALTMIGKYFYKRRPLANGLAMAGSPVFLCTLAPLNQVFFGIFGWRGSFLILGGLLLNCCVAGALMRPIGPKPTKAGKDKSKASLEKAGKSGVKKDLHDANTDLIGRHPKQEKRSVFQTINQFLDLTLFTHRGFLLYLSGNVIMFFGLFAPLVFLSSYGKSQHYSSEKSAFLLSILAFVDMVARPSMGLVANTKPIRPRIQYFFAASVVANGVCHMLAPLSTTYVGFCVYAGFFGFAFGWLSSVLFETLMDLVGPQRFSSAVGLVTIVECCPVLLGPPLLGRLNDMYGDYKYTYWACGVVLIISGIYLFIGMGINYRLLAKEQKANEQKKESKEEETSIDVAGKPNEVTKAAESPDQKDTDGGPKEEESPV

LAT1 = LAT1 (Homo sapiens, UniProt Q01650); assay: Gabapentin uptake by HIBCPP cells; type: cell-based
SLC35F2 = target: T3, SLC35F2 (Homo sapiens, UniProt Q8IXU6); assay: YM155 uptake by HIBCPP cells; type: cell-based; conditions: 30 s
T3 sequence (Q8IXU6 1-374): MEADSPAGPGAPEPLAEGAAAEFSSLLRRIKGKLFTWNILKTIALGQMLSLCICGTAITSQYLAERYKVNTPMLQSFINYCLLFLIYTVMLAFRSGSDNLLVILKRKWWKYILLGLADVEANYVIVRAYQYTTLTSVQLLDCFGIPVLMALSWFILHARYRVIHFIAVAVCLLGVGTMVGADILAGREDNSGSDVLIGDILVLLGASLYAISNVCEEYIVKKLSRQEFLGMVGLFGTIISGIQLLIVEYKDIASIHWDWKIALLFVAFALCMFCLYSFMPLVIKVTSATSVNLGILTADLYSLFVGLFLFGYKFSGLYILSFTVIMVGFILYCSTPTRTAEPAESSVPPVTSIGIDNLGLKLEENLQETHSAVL

GLAST = GLAST (Homo sapiens, UniProt P43003); assay: [3H]L-glutamate uptake by HIBCPP cells; type: cell-based; conditions: 1 min
Transcellular transport = conditions: human
OATP1B3 = assay: Telmisartan uptake by HIBCPP cells; type: cell-based, human; conditions: telmisartan uptake at 4°C, 30 s
[1] = Papp,correct (AP-to-BL)/Papp,correct (BL-to-AP)

Chain of CAT1 (P30825 whole entry): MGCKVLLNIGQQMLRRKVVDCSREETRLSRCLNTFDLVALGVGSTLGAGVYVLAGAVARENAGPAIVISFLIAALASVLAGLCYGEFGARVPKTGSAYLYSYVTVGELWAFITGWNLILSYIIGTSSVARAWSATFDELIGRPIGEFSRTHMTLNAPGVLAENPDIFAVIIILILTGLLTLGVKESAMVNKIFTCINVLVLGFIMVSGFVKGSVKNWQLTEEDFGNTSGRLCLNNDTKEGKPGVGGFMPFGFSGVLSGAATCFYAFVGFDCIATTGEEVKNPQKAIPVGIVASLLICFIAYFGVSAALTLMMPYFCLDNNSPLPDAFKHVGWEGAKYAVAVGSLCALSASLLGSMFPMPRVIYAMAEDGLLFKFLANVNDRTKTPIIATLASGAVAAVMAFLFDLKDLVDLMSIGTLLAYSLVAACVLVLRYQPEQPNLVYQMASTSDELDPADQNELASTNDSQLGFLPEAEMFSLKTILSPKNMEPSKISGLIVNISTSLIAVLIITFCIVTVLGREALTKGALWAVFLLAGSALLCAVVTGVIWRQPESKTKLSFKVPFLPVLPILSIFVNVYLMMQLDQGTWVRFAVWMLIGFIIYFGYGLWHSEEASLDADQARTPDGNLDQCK
Chain of GLAST (P43003 whole entry): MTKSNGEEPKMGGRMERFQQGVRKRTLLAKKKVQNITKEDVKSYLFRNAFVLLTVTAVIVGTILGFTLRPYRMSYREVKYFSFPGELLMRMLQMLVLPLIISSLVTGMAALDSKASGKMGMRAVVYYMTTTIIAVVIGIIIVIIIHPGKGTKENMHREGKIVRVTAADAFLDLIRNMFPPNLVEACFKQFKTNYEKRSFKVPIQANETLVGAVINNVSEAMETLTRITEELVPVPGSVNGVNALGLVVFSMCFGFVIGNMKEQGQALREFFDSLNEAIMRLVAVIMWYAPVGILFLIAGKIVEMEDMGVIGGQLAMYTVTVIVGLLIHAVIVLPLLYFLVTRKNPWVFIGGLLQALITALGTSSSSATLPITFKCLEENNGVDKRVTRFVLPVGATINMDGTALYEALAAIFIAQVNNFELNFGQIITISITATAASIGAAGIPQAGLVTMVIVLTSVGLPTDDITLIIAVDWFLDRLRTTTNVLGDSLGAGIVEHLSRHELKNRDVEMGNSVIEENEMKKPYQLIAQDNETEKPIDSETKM
Chain of LAT1 (Q01650 whole entry): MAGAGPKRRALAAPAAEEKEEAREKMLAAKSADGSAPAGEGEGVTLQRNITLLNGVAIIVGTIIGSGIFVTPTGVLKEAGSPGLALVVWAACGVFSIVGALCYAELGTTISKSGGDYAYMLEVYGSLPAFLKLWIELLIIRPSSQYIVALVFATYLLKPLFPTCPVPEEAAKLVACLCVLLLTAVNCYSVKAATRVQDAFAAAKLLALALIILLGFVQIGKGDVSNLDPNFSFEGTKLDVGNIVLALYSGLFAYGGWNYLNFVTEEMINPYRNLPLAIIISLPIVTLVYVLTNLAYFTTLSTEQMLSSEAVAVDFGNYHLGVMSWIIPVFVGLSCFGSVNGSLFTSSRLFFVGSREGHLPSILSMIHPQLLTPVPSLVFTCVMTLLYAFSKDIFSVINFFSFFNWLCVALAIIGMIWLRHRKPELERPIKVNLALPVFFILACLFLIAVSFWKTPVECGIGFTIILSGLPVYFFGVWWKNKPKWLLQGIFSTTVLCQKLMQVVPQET
Chain of LAT1 (P08195 102-630 partner): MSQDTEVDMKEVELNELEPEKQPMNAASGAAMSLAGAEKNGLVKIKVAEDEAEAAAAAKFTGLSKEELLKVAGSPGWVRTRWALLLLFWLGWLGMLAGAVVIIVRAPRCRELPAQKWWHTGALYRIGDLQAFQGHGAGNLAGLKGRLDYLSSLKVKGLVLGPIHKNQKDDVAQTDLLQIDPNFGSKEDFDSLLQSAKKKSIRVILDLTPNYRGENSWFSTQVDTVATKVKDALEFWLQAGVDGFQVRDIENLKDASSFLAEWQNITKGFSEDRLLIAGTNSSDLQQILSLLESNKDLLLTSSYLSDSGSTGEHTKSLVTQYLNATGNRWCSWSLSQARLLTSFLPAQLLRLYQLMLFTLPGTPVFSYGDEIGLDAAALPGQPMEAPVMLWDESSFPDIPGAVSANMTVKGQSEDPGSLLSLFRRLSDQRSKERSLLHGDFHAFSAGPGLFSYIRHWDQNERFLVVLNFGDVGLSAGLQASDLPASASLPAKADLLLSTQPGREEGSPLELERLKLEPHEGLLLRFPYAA

## NC(N)=NCCC[C@H](N)C(=O)O [[^3H]L-Arginine, arginine L-[2,3,4-^3H]]
HIBCPP cell layer; [1]
  Efflux ratio: exceed 1
CAT1; [3H]L-arginine uptake at 4°C
  Relative uptake (% of control): 6.80 ± 0.69 % of control
CAT1; [3H]L-arginine uptake, low temperature (4°C)
  Decrease of uptake at low temperatures: > 90%
CAT1; [3H]L-arginine, at 4 °C or in the presence of respective inhibitor
  Reduction of uptake into HIBCPP cells: more than 80%

## NCCc1c[nH]c2ccc(O)cc12 [Serotonin]
PMAT; MPP+ uptake + 1 mM serotonin
  Relative uptake (% of control): 48.6 ± 5.1 % of control

## [3H]CO[C@H]1[C@H](O)[C@@H](CO)OC(O)[C@@H]1O (stereo partly drawn) [[^3H]3-O-Methylglucose, methyl-D-glucose 3-O-[methyl-^3H]]
GLUT1; [3H]3-O-methylglucose uptake at 4°C
  Relative uptake (% of control): 14.0 ± 1.3 % of control
HIBCPP cell layer; [1]
  Efflux ratio: 1.05

## Cc1[nH]nc(C(F)(F)F)c1Cc1sc2c(c1C(=O)N1C[C@](C)(O)CO1)c(=O)n(C)c(=O)n2C(C)C [AZD3965]
MCT1; [14C]L-lactate uptake + 20 nM AZD3965, 30 s
  Relative uptake (% of control): 28.0 % of control and 28.0 ± 1.6 % of control

## Nc1cc(COc2c(Cl)cc(C[C@H](N)C(=O)O)cc2Cl)c2oc(-c3ccccc3)nc2c1 [JPH203]
LAT1; gabapentin uptake + 10 μM JPH203, 1 min
  Relative uptake (% of control): 13.1 ± 0.2 % of control

## NC(N)=Nc1nc(CSCCC(N)=NS(N)(=O)=O)cs1 [Famotidine]
SLC35F2; YM155 uptake + 1 mM famotidine
  Relative uptake (% of control): 40.0 ± 8.5 % of control

## N[C@@H](CC(=O)O)C(=O)O [L-Aspartic acid]
GLAST; [3H]L-glutamate uptake + 1 mM L-aspartic acid
  Relative uptake (% of control): 65.3 ± 4.9 % of control
GLAST; [3H]L-glutamate uptake + 1 mM L-aspartic acid, listed as L-aspartic acid
  Relative uptake (% of control): 65.3 % of control

## [14CH3][14CH](O)[14C](=O)[O-].[Na+] [[^14C]L-Lactate, lactic acid L-[^14C(U)] Na salt]
MCT1; [14C]L-lactate uptake at 4°C, 30 s
  Relative uptake (% of control): 17.7 % of control and 17.7 ± 0.4 % of control
HIBCPP cell layer; AP side pH 6.0 BL side pH 7.4
  Papp AP-to-BL: 30.6 ± 2.0 × 10^–6 cm/sec
  Papp BL-to-AP: 4.71 ± 0.14 × 10^–6 cm/sec
  Papp,correct AP-to-BL: 27.3 ± 2.0 × 10^–6 cm/sec
  Papp,correct BL-to-AP: 1.44 ± 0.14 × 10^–6 cm/sec
HIBCPP cell layer; AP side pH 6.0 BL side pH 7.4, Papp,correct (AP-to-BL)/(BL-to-AP)
  Efflux ratio: 19.0
HIBCPP cell layer; AP side pH 7.4 BL side pH 6.0
  Papp AP-to-BL: 3.05 ± 0.09 × 10^–6 cm/sec
  Papp BL-to-AP: 11.5 ± 0.1 × 10^–6 cm/sec
  Papp,correct BL-to-AP: 8.20 ± 0.11 × 10^–6 cm/sec
HIBCPP cell layer; AP side pH 7.4 BL side pH 7.4
  Papp AP-to-BL: 9.56 ± 0.20 × 10^–6 cm/sec
  Papp BL-to-AP: 8.84 ± 0.36 × 10^–6 cm/sec
  Papp,correct AP-to-BL: 6.26 ± 0.20 × 10^–6 cm/sec
  Papp,correct BL-to-AP: 5.57 ± 0.36 × 10^–6 cm/sec
HIBCPP cell layer; AP side pH 7.4 BL side pH 7.4, Papp,correct (AP-to-BL)/(BL-to-AP)
  Efflux ratio: 1.12

## glutamic acid L-[2,3,4-^3H] [[^3H]L-Glutamate]
HIBCPP cell layer
  Papp,correct in the BL-to-AP direction relative to the AP-to-BL direction: approximately 2 times
HIBCPP cell layer; [1]
  Efflux ratio: 0.45
HIBCPP cell layer; Papp,correct (AP-to-BL)/Papp,correct (BL-to-AP), listed as [^3H]L-glutamate
  Efflux ratio: below 1
GLAST; [3H]L-glutamate uptake at 4°C
  Relative uptake (% of control): 17.7 ± 3.0 % of control
GLAST; [3H]L-glutamate uptake at 4°C, listed as [^3H]L-glutamate
  Relative uptake (% of control): 17.7 % of control

## COCCn1c2c([n+](Cc3cnccn3)c1C)C(=O)c1ccccc1C2=O [YM155]
SLC35F2; YM155 uptake at 4°C
  Relative uptake (% of control): 27.8 ± 3.0 % of control
Transcellular transport
  Papp A→B: 3.36 ± 0.34 ×10⁻⁶ cm/s
  Papp A→B at 2 h: 6.66 ± 0.34 ×10⁻⁶ cm/s
  Papp B→A: 1.32 ± 0.37 ×10⁻⁶ cm/s
  Papp B→A at 2 h: 4.59 ± 0.37 ×10⁻⁶ cm/s

## NCC1(CC(=O)O)CCCCC1 [Gabapentin]
Transcellular transport
  Papp A→B: 10.8 ± 0.6 ×10⁻⁶ cm/s
  Papp A→B at 2 h: 14.1 ± 0.6 ×10⁻⁶ cm/s
  Papp B→A: 0.213 ± 0.078 ×10⁻⁶ cm/s
  Papp B→A at 2 h: 3 ± 0.08 ×10⁻⁶ cm/s
HIBCPP cell layer; [1]
  Efflux ratio: 50.7
LAT1; gabapentin uptake at 4°C, 1 min
  Relative uptake (% of control): 9.24 ± 0.54 % of control
LAT1; gabapentin uptake, low temperature (4°C)
  Decrease of uptake at low temperatures: > 90%
LAT1; gabapentin, at 4 °C or in the presence of respective inhibitor
  Reduction of uptake into HIBCPP cells: more than 80%

## C[n+]1ccc(-c2ccccc2)cc1 [MPP^+, 1-methyl-4-phenylpyridinium]
HIBCPP cell layer; [1]
  Efflux ratio: 1.03
PMAT; MPP+ uptake at 4°C
  Relative uptake (% of control): 22.2 ± 5.5 % of control

## OC[C@H]1OC(O)[C@H](O)[C@@H](O)[C@@H]1O (some centres unmarked) [Glucose]
GLUT1; [3H]3-O-methylglucose uptake + 5.6 mM glucose
  Relative uptake (% of control): 54.7 ± 1.4 % of control

## O=C1CN(/N=C/c2ccc(-c3ccc([N+](=O)[O-])cc3)o2)C(O)=N1 [Dantrolene, Dantrolene sodium]
Transcellular transport
  Papp A→B: 5.98 ± 0.77 ×10⁻⁶ cm/s
  Papp A→B at 2 h: 9.28 ± 0.77 ×10⁻⁶ cm/s
  Papp B→A: 11.5 ± 0.9 ×10⁻⁶ cm/s
  Papp B→A at 2 h: 14.8 ± 0.9 ×10⁻⁶ cm/s
HIBCPP cell layer
  Papp,correct in the BL-to-AP direction relative to the AP-to-BL direction: 2 times
HIBCPP cell layer; [1]
  Efflux ratio: 0.52

## CCCc1nc2c(C)cc(-c3nc4ccccc4n3C)cc2n1Cc1ccc(-c2ccccc2C(=O)O)cc1 [Telmisartan]
OATP1B3
  Relative uptake (% of control): 22.9 ± 1.4 % of control
Transcellular transport
  Papp A→B at 2 h: 0.9 ± 0.23 ×10⁻⁶ cm/s
  Papp B→A: 10.5 ± 3.3 ×10⁻⁶ cm/s
  Papp B→A at 2 h: 13.8 ± 3.3 ×10⁻⁶ cm/s
Transcellular transport; Efflux ratio, Papp,correct (AP-to-BL)/Papp,correct (BL-to-AP)
  Efflux ratio: < 1

## NCCC[C@H](N)C(=O)O [L-Ornithine]
CAT1; [3H]L-arginine uptake + 1 mM L-ornithine
  Relative uptake (% of control): 18.7 ± 0.2 % of control
